Reference: ChEMBL document CHEMBL1138627, “1-Methyl and 1-(2-hydroxyalkyl)-5-(3-alkyl/cycloalkyl/phenyl/naphthylureido)-1H-pyrazole-4-carboxylic acid ethyl esters as potent human neutrophil chemotaxis inhibitors” (Bioorg Med Chem, 2009)

Columns and labels:
[1] = system: Neutrophil; assay: Reduction of chemotaxis in human neutrophils assessed as inhibition of fMLP-OMe-induced cell migration pretreated 10 mins before fMLP-OMe challenge; assay type: functional, cell-based
[2] = Cytotoxicity against human neutrophils assessed as LDH release; assay type: cell-based; parameters: concentration or dose not given beside the values; conditions: neutrophil
[3] = system: Neutrophil; assay: Reduction of chemotaxis in human neutrophils assessed as inhibition of IL8-induced cell migration pretreated 10 mins before IL8 challenge; assay type: functional, cell-based
[4] = system: Mus musculus; assay: Antiinflammatory activity against zymosan-induced peritonitis in Swiss mouse assessed as inhibition of granulocyte infiltration into peritoneal cavity at 100 mg/kg, po administered 1 hr before zymosan challenge measured after 4 hrs; assay type: functional
[5] = system: Mus musculus; assay: Antiinflammatory activity against zymosan-induced peritonitis in Swiss mouse assessed as inhibition of granulocyte infiltration into peritoneal cavity at 50 mg/kg, po administered 1 hr before zymosan challenge measured after 4 hrs; assay type: functional; parameters: scale not given: the % may be the effect or the level left
[6] = system: Mus musculus; assay: Antiinflammatory activity against zymosan-induced peritonitis in Swiss mouse assessed as protein concentration at 50 mg/kg, po administered 1 hr before zymosan challenge by spectrophotometry; assay type: functional
[7] = system: Neutrophil; assay: Inhibition of chemotaxis in human neutrophils assessed as reduction of fMLP-OMe-induced cell migration at 10 uM relative to control; assay type: functional
[8] = system: Mus musculus; assay: Antiinflammatory activity against zymosan-induced peritonitis in Swiss mouse assessed as monocyte and lymphocyte content in peritoneal cavity at 50 mg/kg, po administered 1 hr before zymosan challenge measured after 4 hrs; assay type: functional
[9] = system: Mus musculus; assay: Antiinflammatory activity against zymosan-induced peritonitis in Swiss mouse assessed as inhibition of granulocyte infiltration into peritoneal cavity at 3 mg/kg, po administered 1 hr before zymosan challenge measured after 4 hrs; assay type: functional; parameters: scale not given: the % may be the effect or the level left
[10] = system: Mus musculus; assay: Antiinflammatory activity against zymosan-induced peritonitis in Swiss mouse assessed as monocyte and lymphocyte content in peritoneal cavity lavage at 3 mg/kg, po administered 1 hr before zymosan challenge measured after 4 hrs; assay type: functional
[11] = system: Mus musculus; assay: Antiinflammatory activity against zymosan-induced peritonitis in Swiss mouse assessed as granulocyte content in peritoneal cavity lavage at 3 mg/kg, po administered 1 hr before zymosan challenge measured after 4 hrs; assay type: functional
[12] = system: Mus musculus; assay: Antiinflammatory activity against zymosan-induced peritonitis in Swiss mouse assessed as peritoneal protein concentration at 3 mg/kg, po administered 1 hr before zymosan challenge by spectrophotometry; assay type: functional

SMILES | IC50 ([1]; read-out: IC50) [nM] | IC50 [3] [pM] | Activity [2] [%] | also measured
CCOC(=O)c1cnn(CC(O)CC)c1NC(=O)Nc1ccc(F)cc1 (stereo not drawn) | 3.2 | 1900 | < 3 | 
CCOC(=O)c1cnn(CC(O)CC)c1NC(=O)Nc1cccc(F)c1 (stereo not drawn) | 0.19 | 360 | < 3 | 
CCOC(=O)c1cnn(CC(O)c2ccccc2)c1NC(=O)Nc1cccc(F)c1 (stereo not drawn) |  |  |  | inhibition in vivo at 100 mg/kg [4]: 33%
CCOC(=O)c1cnn(C)c1NC(=O)N1CCN(Cc2ccccc2)CC1 | 150 | 54.6 | < 3 | 
CCOC(=O)c1cnn(CC(C)O)c1NC(=O)Nc1ccc(F)cc1 (stereo not drawn) | > 10 | 200 | < 3 | inhibition at 10 µM [7]: 55%
CCOC(=O)c1cnn(CC(C)O)c1NC(=O)NC(C)C (stereo not drawn) | 90 | 0.82 | < 3 | 
CCOC(=O)c1cnn(CC(C)O)c1NC(=O)N1CCN(Cc2ccccc2)CC1 (stereo not drawn) | > 10 | 0.99 | < 3 | inhibition at 10 µM [7]: 63%
CCOC(=O)c1cnn(CC(O)CC)c1NC(=O)NC(C)C (stereo not drawn) | > 10 |  | < 3 | inhibition at 10 µM [7]: 52%
CCOC(=O)c1cnn(CC(C)O)c1NC(=O)Nc1cccc(F)c1 (stereo not drawn) | > 10 | 0.7 | < 3 | inhibition at 10 µM [7]: 60%; Activity [5]: 21%; Activity [8]: 23%; Activity [6]: 2.68%
CCCC(O)Cn1ncc(C(=O)OCC)c1NC(=O)N1CCN(Cc2ccccc2)CC1 (stereo not drawn) | 1.1 | 90 | < 3 | 
CCOC(=O)c1cnn(CC(O)CC)c1NC(=O)N1CCN(Cc2ccccc2)CC1 (stereo not drawn) | 2000 | 0.08 | < 3 | 
CCCC(O)Cn1ncc(C(=O)OCC)c1NC(=O)NC(C)C (stereo not drawn) | 20 | 1000 | < 3 | 
C/C=C/C[C@@H](C)[C@@H](O)[C@H]1C(=O)N[C@@H](CC)C(=O)N(C)CC(=O)N(C)[C@@H](CC(C)C)C(=O)N[C@@H](C(C)C)C(=O)N(C)[C@@H](CC(C)C)C(=O)N[C@@H](C)C(=O)N[C@H](C)C(=O)N(C)[C@@H](CC(C)C)C(=O)N(C)[C@@H](CC(C)C)C(=O)N(C)[C@@H](C(C)C)C(=O)N1C [CYCLOSPORINE] |  |  |  | IC50 [1]: 0.047 nM
CCOC(=O)c1cnn(C)c1NC(=O)NC(C)C | 77 | 1.8 | < 3 | 
C[C@@H]1C[C@H]2[C@@H]3CCC4=CC(=O)C=C[C@]4(C)[C@@]3(F)[C@@H](O)C[C@]2(C)[C@@]1(O)C(=O)CO [DEXAMETHASONE] |  |  |  | Activity [9]: 35%; Activity [10]: 20%; Activity [11]: 81%; protein concentration [12]: 1.75 µg/mL

Second part, led by results:

IC50 ([1]; read-out: IC50) [nM] | IC50 [3] [pM] | SMILES | Activity [2] [%] | also measured
 | 10000 | CCOC(=O)c1cnn(CC(O)c2ccccc2)c1NC(=O)NCc1ccccc1 (stereo not drawn) |  | 
12 | 9600 | CCOC(=O)c1cnn(CC(O)CC)c1NC(=O)Nc1cccc2ccccc12 (stereo not drawn) | < 3 | 
100 | 0.55 | CCOC(=O)c1cnn(CC(C)O)c1NC(=O)Nc1ccccc1F (stereo not drawn) | < 3 | Activity [5]: 34%; protein concentration [6]: 2.62 µg/mL
18 | 1300 | CCOC(=O)c1cnn(C)c1NC(=O)NCc1ccccc1 | < 3 | 
15 | 0.54 | CCOC(=O)c1cnn(CC(C)O)c1NC(=O)NCc1ccccc1 (stereo not drawn) | < 3 | 
9.8 | 0.97 | CCOC(=O)c1cnn(CC(C)O)c1NC(=O)Nc1cccc2ccccc12 (stereo not drawn) | < 3 | 
 | 55000 | CCOC(=O)c1cnn(CC(O)c2ccccc2)c1NC(=O)NC(C)C (stereo not drawn) |  | 
7.8 |  | CCOC(=O)c1cnn(CC(O)c2ccccc2)c1NC(=O)Nc1cccc2ccccc12 (stereo not drawn) | < 3 | 
120 |  | CCOC(=O)c1cnn(CC(O)CC)c1NC(=O)Nc1ccccc1F (stereo not drawn) | < 3 | 
> 10 |  | CCOC(=O)c1cnn(CC(O)CC)c1NC(=O)NCc1ccccc1 (stereo not drawn) | < 3 | inhibition at 10 µM [7]: 54%
0.43 |  | CCCC(O)Cn1ncc(C(=O)OCC)c1NC(=O)NCc1ccccc1 (stereo not drawn) | < 3 | 
 | 45000 | CCOC(=O)c1cnn(CC(O)c2ccccc2)c1NC(=O)Nc1ccccc1 (stereo not drawn) |  | 
 | 14000 | CCOC(=O)c1cnn(CC(O)c2ccccc2)c1NC(=O)N1CCN(Cc2ccccc2)CC1 (stereo not drawn) |  | 
